The term inhibition denotes the percentage by which the read-out fell short of the control. Usually IC50 stands for the concentration that inhibits the measured activity by half.

Molecules are shown by their SMILES.

Data on 20 molecules can be found in US8119647B2, “Fused pyrimidineone compounds as TRPV3 modulators” (Glenmark Pharmaceuticals S.A., priority 2008, dated 2012).

The target in the experiment is T1, Human TRPV3 (Homo sapiens, UniProt Q8NET8).
T1 construct: expressed in transfected cells; host or cells: CHO cells (G-418 selection)
T1 sequence (Q8NET8 1-790): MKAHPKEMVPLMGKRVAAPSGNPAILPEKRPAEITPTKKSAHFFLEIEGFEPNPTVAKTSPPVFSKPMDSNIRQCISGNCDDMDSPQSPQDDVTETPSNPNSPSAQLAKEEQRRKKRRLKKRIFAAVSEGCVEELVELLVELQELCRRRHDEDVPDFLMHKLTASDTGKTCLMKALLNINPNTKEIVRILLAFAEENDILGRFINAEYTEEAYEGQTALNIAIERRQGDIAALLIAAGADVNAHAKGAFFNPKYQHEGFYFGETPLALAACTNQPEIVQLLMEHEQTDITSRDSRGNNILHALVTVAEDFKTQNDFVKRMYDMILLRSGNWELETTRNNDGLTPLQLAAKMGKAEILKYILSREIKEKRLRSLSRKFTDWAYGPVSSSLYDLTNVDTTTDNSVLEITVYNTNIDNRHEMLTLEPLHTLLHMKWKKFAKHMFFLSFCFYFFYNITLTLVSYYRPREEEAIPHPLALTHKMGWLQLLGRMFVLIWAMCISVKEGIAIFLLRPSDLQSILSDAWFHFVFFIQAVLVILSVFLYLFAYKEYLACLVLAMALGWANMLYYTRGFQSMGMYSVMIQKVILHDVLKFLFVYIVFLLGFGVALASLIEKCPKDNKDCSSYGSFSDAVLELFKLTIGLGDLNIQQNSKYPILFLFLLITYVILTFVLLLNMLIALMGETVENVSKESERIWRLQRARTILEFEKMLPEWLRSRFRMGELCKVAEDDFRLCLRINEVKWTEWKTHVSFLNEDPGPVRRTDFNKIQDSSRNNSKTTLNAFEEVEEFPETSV
The experiment in a line: Screening for TRPV3 antagonist using the 45Calcium uptake assay (inhibition of 2-APB induced cellular uptake of radioactive calcium). Type of experiment: cell-based. Particulars: human TRPV3 expressing CHO cells, 2-APB 500 μM; for inhibition at 1 µM / Percentage inhibition at 1.0 μM: 1.0 μM test compound; for inhibition at 1 µM: read-out: Percentage inhibition at 1.0 μM; for inhibition at 10 µM / Percentage inhibition at 10.0 μM: 10.0 μM test compound; for inhibition at 10 µM: read-out: Percentage inhibition at 10.0 μM; for IC50: class symbols. An excerpt:
The illustrative examples of the present invention are screened for TRPV3 activity according to a modified procedure described in Tóth, A., Kedei, N., Wang, Y. and Blumberg, P. M. Life Sciences (2003), 73, 487-498. The screening of the compounds can be carried out by other methods and procedures known to a person skilled in the art. Such screening methods may be found in (a) Hu, H.-Z. et al. J. Biol. Chem. (2004), 279, 35741-35747; (b) Smith, G. D. et al. Nature (2002), 418, 186-190; (c) Peier, A. M. et al. Science (2002), 296, 2046-2049.
Screening for TRPV3 Antagonist Using the ^45Calcium Uptake Assay:
The inhibition of TRPV3 receptor activation was followed as inhibition of 2-aminoethoxydiphenylborate (2-APB) induced cellular uptake of radioactive calcium. Test compounds were dissolved in dimethyl sulfoxide (DMSO) to prepare 20 mM stock solution and then diluted using plain medium with DMEM/F-12 containing 1.8 mM CaCl2 to get desired concentration. Final concentration of DMSO in the reaction was 0.5% (v/v). Human TRPV3 expressing CHO cells were grown in DMEM/F-12 medium with 10% FBS, 1% penicillin-streptomycin solution, 400 μg/ml of G-418. Cells were seeded 24 h prior to the assay in 96 well plates so as to get ˜50,000 cells per well on the day of experiment. Cells were treated with test compounds for 10 minutes followed by addition of 2-APB at a final concentration of 500 μM and 5 μCi/ml ^45Ca^+2 for 4 minutes. Cells were washed and lysed using buffer containing 1% Triton X-100, 0.1% deoxycholate and 0.1% SDS. Radioactivity in the lysate was measured in Packardt Top count after addition of liquid scintillant. Concentration response curves were plotted as a % of maximal response obtained in the absence of test antagonist. IC50 value was calculated from concentration response curve by nonlinear regression analysis using GraphPad PRISM software.
Percentage inhibition at concentrations of 1.0 μM and 10.0 μM are given in the table along with IC50 (nM) values for selected examples.

As for `CCCCCOc1c(/C=C/c2nc3sccn3c(=O)c2-c2ccc(OC(F)(F)F)cc2)cccc1OC` [Example 55, 7-[(E)-2-(3-Methoxy-2-pentyloxyphenyl)-1-ethenyl]-6-[4-(trifluoromethoxy)phenyl]-5H-[1,3]thiazolo[3,2-a]pyrimidin-5-one], the inhibition at 1 µM came to 81.7%, the inhibition at 10 µM worked out at 92.8% and the IC50 is less than 250 nM.

`O=c1c(-c2ccc(OC(F)(F)F)cc2)c(/C=C/c2cccc(O)c2O)nc2sccn12` [Example 59]: the “Percentage inhibition at 1.0 μM” value is listed as 3.68% and the “Percentage inhibition at 10.0 μM” value came to 0.00%.

`COCCOc1c(/C=C/c2nc3sccn3c(=O)c2-c2ccc(C(F)(F)F)cc2)cccc1OC` [Example 31, {7-[(E)-2-(2-Methoxyethoxy-3-methoxy)phenyl}vinyl]-6-[4-(trifluoromethyl)phenyl]-5H-[1,3]thiazolo[3,2-a]pyrimidin-5-one]: the inhibition at 1 µM was 66.9%, the inhibition at 10 µM came out at 97.2% and the IC50 fell in the range of 250 to 500 nM.

Take `COc1cccc(/C=C/c2nc3sccn3c(=O)c2-c2ccc(C#N)cc2)c1OCCCC#N` [Example 22, 4-{7-[(E)-2-{2-(3-Cyanopropoxy)-3-(methoxyphenyl)-1-ethenyl]}-5-oxo-5H-[1,3]-thiazolo[3,2-a]pyrimidin-6-yl}benzonitrile]: the “Percentage inhibition at 1.0 μM” value was 16.1% and the “Percentage inhibition at 10.0 μM” value turned out to be 24.5%.

Turning to `COc1cccc(/C=C/c2nc3sccn3c(=O)c2-c2ccc(C(F)(F)F)cc2)c1OCC1CCC1` [Example 34, 7-[(E)-2-(2-Cyclobutylmethoxy-3-methoxyphenyl)-1-ethenyl]-6-[4-(trifluoromethyl)phenyl]-5H-[1,3]thiazolo[3,2-a]pyrimidin-5-one], the inhibition at 1 µM is 43.1% and the inhibition at 10 µM was 78.4%.

For `COc1cccc(/C=C/c2nc3sccn3c(=O)c2-c2ccc(C(F)(F)F)cc2)c1OCC(C)(C)C` [Example 29, 7-[(E)-2-(3-Methoxy-2-neopentyloxy)phenyl-1-ethenyl]-6-(4-(trifluoromethyl)phenyl)-5H-[1,3]thiazolo[3,2-a]pyrimidin-5-one], the inhibition at 1 µM worked out at 86.5%, the inhibition at 10 µM worked out at 93.7% and the IC50 was less than 250 nM.

Regarding `COc1cccc(/C=C/c2nc3sccn3c(=O)c2-c2ccc(OC(F)F)cc2)c1OCC1CC1` [Example 48, 7-[(E)-2-(2-Cyclopropylmethoxy-3-methoxyphenyl)-1-ethenyl]-6-(4-difluoromethoxyphenyl]-5H-[1,3]thiazolo[3,2-a]pyrimidin-5-one], the inhibition at 1 µM came to 80%, the inhibition at 10 µM is 95.1% and the IC50 was less than 250 nM.

Consider `COc1cccc(/C=C/c2nc3sccn3c(=O)c2-c2ccc(N(C)C)cc2)c1OCC1CC1` [Example 6, 6-(4-Dimethylaminophenyl)-7-[(E)-2-(2-cyclopropylmethoxy-3-methoxyphenyl]-1-ethenyl]-5H-[1,3]thiazolo[3,2-a]pyrimidin-5-one], for which the inhibition at 1 µM was found to be 76%, the inhibition at 10 µM is 95.3% and the IC50 was 250 to 500 nM.

Regarding `COc1cccc(/C=C/c2nc3sccn3c(=O)c2-c2ccc(O)cc2)c1OCC1CC1` [Example 7, 7-[(E)-2-(2-Cyclopropylmethoxy-3-methoxyphenyl)-1-ethenyl]-6-(4-hydroxyphenyl)-5H-[1,3]thiazolo[3,2-a]pyrimidin-5-one], the inhibition at 1 µM was 12% and the inhibition at 10 µM was 69.3%.

As for `CCCCOc1c(/C=C/c2nc3sccn3c(=O)c2-c2ccc(C#N)cc2)cccc1OC` [Example 9, 4-{7-[(E)-2-(2-Butoxy-3-methoxyphenyl)-1-ethenyl]-5-oxo-5H-[1,3]thiazolo[3,2-a]pyrimidin-6-yl}benzonitrile], the inhibition at 1 µM is 71.6%, the inhibition at 10 µM worked out at 91.9% and the IC50 lay within 500 to 1000 nM.

Regarding `COc1cccc(/C=C/c2nc3sccn3c(=O)c2-c2ccc(F)nc2)c1OCC1CC1` [Example 3], the “Percentage inhibition at 1.0 μM” value came to 20.1% and the “Percentage inhibition at 10.0 μM” value is on record as 89.3%.

Turning to `O=c1c(-c2ccc(OC(F)(F)F)cc2)c(/C=C/c2cccc(OCC3CC3)c2OCC2CC2)nc2sccn12` [Example 64, 7-{(E)-2-[2-(Cyclopropylmethoxy)-3-(cyclopropylmethoxy)phenyl]-1-ethenyl}-6-(4-trifluoromethoxyphenyl)-5H-[1,3]thiazolo[3,2-a]pyrimidin-5-one], the inhibition at 1 µM stood at 16.3% and the inhibition at 10 µM was found to be 21.1%.

Take `COc1cccc(/C=C/c2nc3sccn3c(=O)c2-c2ccc(C(F)(F)F)cc2)c1OCc1ccccn1` [Example 36]: the “Percentage inhibition at 1.0 μM” value was found to be 11.2% and the “Percentage inhibition at 10.0 μM” value stood at 0.0%.

As to `CCOCCOc1c(/C=C/c2nc3sc4ccccc4n3c(=O)c2-c2ccc(OC(F)(F)F)cc2)cccc1OC` [Example 97, 2-{(E)-2-[(2-Ethoxyethoxy)-3-methoxyphenyl]-1-ethenyl}-3-(4-trifluoromethoxy-phenyl)-4H-benzo[4,5][1,3]thiazolo-[3,2-a]pyrimidin-4-one], the inhibition at 1 µM worked out at 20.2% and the inhibition at 10 µM was 39.3%.

Regarding `CCOCCOc1c(/C=C/c2nc3sc4ccccc4n3c(=O)c2-c2ccc(C#N)cc2)cccc1OC` [Example 85], the inhibition at 1 µM stood at 81.8%, the inhibition at 10 µM worked out at 91.9% and the IC50 was less than 250 nM.

As for `COc1cccc(/C=C/c2nc3sccn3c(=O)c2-c2ccc(C(C)(C)C)cc2)c1OCC1CC1` [Example 4], the inhibition at 1 µM is 66.5%, the inhibition at 10 µM is 84.7% and the IC50 lay in the range of 250 to 500 nM.

On to `N#Cc1ccc(-c2c(/C=C/c3cccnc3)nc3sccn3c2=O)cc1` [Example 23, 4-{5-Oxo-7-[(E)-2-(3-pyridyl)-1-ethenyl]-5H-[1,3]thiazolo[3,2-a]pyrimidin-6-yl}-benzonitrile], for which the inhibition at 1 µM turned out to be 15.4% and the inhibition at 10 µM stood at 1.2%.

With `CCOCCOc1c(/C=C/c2nc3sccn3c(=O)c2-c2ccc(OC(F)(F)F)cc2)cccc1OC` [Example 53, 7-[(E)-2-{2-(2-Ethoxyethoxy)-3-methoxyphenyl}-1-ethenyl]-6-[4-(trifluoromethoxy)phenyl]-5H-[1,3]thiazolo[3,2-a]pyrimidin-5-one], the inhibition at 1 µM was determined as 89.9%, the inhibition at 10 µM was found to be 95.9% and the IC50 is less than 250 nM.

As for `COc1cccc(/C=C/c2nc3sc4ccccc4n3c(=O)c2-c2ccc(C(F)(F)F)cc2)c1OCC1CC1` [Example 91, 2-{(E)-2-[(2-Cyclopropylmethoxy)-3-methoxyphenyl]-1-ethenyl}-3-(4-trifluoromethyl-phenyl)-4H-benzo[4,5][1,3]thiazolo-[3,2-a]pyrimidin-4-one], the “Percentage inhibition at 1.0 μM” value is reported as 4.98% and the “Percentage inhibition at 10.0 μM” value amounted to 19.85%.

In the case of `COc1cccc(/C=C/c2nc3sccn3c(=O)c2-c2ccc(C(F)(F)F)cc2)c1OCCCC#N` [Example 30], the “Percentage inhibition at 1.0 μM” value is recorded as 45.2% and the “Percentage inhibition at 10.0 μM” value was determined as 75.9%.
